# Laboratory results: patent US20090143465A1 (SUMITOMO CHEMICAL COMPANY, LIMITED, priority 2006, published 2009)
# System: Adult houseflies
# Experiment: Housefly knock-down test, oil solution sprayed in cubic chamber (Test Example 1)
# Assay type: in vivo, houseflies (Musca domestica)
# Conditions: 0.7 ml of 0.00625% oil solution sprayed into 70 cm cubic chamber; adult houseflies (5 males and 5 females); counted up to 10 minutes after spraying
# Description: A solution of 0.00625 part of the present compound (1) in 10 parts of dichloromethane was mixed with 89.99375 parts of deodorized kerosene to obtain a 0.00625% oil solution.
# Adult houseflies (5 males and 5 females) were left in a cubic chamber (70 cm at each side). Into the chamber, 0.7 ml of 0.00625% oil solution of the present compound (1) prepared above was sprayed with a spray gun at a pressure of 8.8×10^4 Pa from a small window on the side of the chamber. Then, up to 10 minutes after spraying, the number of knocked-down insects was counted with time. From the results, a time required for knocking down 90% of the tested insects (KT90) was calculated.
# In addition, the same test was carried out that 4-propargyl-2,3,5,6-tetrafluorobenzyl (1R)-trans-3-(2-methyl-1-propenyl)-2,2-dimethylcyclopropanecarboxylate represented by the formula: […]
# (hereinafter, referred to as the comparative compound (A)), which is the compound described in JP-A 61-207361, was used as a comparative compound (repeated twice).
row,Structure (SMILES),KT90 (time required for knocking down 90% of the tested insects) [min]
1,C#CCc1c(F)c(F)c(COC(=O)C2C(/C=C(\C#N)C(=O)OCC)C2(C)C)c(F)c1F (stereo not shown),2.0
2,C#CCc1c(F)c(F)c(COC(=O)C2C(/C=C(\C#N)C(=O)OC)C2(C)C)c(F)c1F (stereo not shown),2.6
3,C#CCc1c(F)c(F)c(COC(=O)C2C(/C=C(\C#N)C(=O)OC(C)C)C2(C)C)c(F)c1F (stereo not shown),5.1
4,"C#CCc1c(F)c(F)c(COC(=O)[C@@H]2[C@@H](C=C(C)C)C2(C)C)c(F)c1F [Comparative compound (A), 4-propargyl-2,3,5,6-tetrafluorobenzyl (1R)-trans-3-(2-methyl-1-propenyl)-2,2-dimethylcyclopropanecarboxylate, reference compound]",>10
